Each structure is given as a SMILES string. Where two headings read alike, the source gives them in different places.

What is called Ki is a measure of affinity in units of concentration, obtained from inhibition or displacement. A word on the ΔTm: it is the shift of the melting midpoint relative to a reference. The IC80 is the point of the concentration-response curve where the effect stands at 80%.

In one series the target is CK2. Conditions: cited from earlier work.
Series [1] concerns the target T1, hCK2α (Homo sapiens, UniProt P68400).
T1 construct: made in house
Description: nanoDSF thermal shift assay (low-volume differential scanning fluorimetry). It counts as binding. Conditions: 10-fold excess of ligand (1:10 protein–ligand), 2.5 μM protein, relative to apo hCK2α, 2% DMSO, pH 8; read-out: ΔTm. On the procedure: Binding affinities of the newly synthesized compounds towards hCK2α were assessed with the low-volume differential scanning fluorimetry (nanoDSF). The shift of the temperature of thermal denaturation in the presence of 10-fold excess of a particular ligand relative to the apo form of hCK2α (ΔTm) can be used as a semi-qualitative measure of the binding affinity or inhibitory activity.
hCK2α was expressed and purified according to the method described previously. Thermal stability of 1:10 protein–ligand complexes was monitored on Prometheus (Nanotemper Technologies, München, Germany) using PR-C002 Prometheus NT.48 Standard Capillaries using temperature ramp of 20 to 80 °C with 1 °C/min heating rate. Temperature-induced variation in ratio fluorescence intensity at 330 and 350 nm was globally analyzed using the procedure described before. All experiments were performed in 25 mM Tris–HCl (pH 8, 0.5 M NaCl) with 2% (v/v) DMSO. Protein was kept in constant 2.5 μM concentration.

Series [2] can be described thus: RP-HPLC chromatographic hydrophobicity index. The class given is physicochemical. As to conditions: C18, 2:1 methanol:20 mM aqueous ammonium formate pH 8; τ = (Tret − T0)/T0. On the procedure: RP-HPLC method, a fast and efficient alternative for standard logD determination in octan-1-ol/water system, was used to assess the hydrophobicity of all synthesized compounds. This method has been successfully used in our laboratory for halogenated benzotriazole derivatives, including the evaluation of the effect of hydrophobicity on their binding to the catalytic subunit of protein kinase CK2 [24, 43].
Chromatographic hydrophobicity index (log(τ)) was determined with the reverse phase HPLC (RP-HPLC). Column: Nova-pak® C18 4 μm, 4.6 × 250 mm. Eluent: 2:1 methanol: 20 mM aqueous ammonium formate (pH = 8) (v/v). Flow: 0.7 mL/min. Detector wavelength: 280 nm. The individual retention times (Tret) were converted to a hydrophobicity scale according to the formula τ = (Tret − T0)/T0. where the retention time of unretained solvent (T0) was estimated to 300 s.

In series [3] the target is T1, hCK2α. Description: Inhibitory activity against human CK2α (ADP-Glo kinase assay). The class given is biochemical. As to conditions: inhibitor 1 nM–1 mM, triplicate. On the procedure:
The inhibitory effect of 8 selected compounds was monitored based on the luminescence measured with the SpectraMax iD3 Multi-Mode Microplate Reader (Molecular Devices, San Jose, CA, USA), using the previously described method with the aid of ADP-Glo kinase assay (Promega, Walldorf, Germany). Inhibitor concentration varied in the range of 1 nM–1 mM (see Supplementary Figure S38). Each experiment was repeated in triplicate and IC50 values were further estimated globally using the sigmoidal dose-response equation implemented in Origin 9.4 package (www.originlab.com, upgraded 20.07.27).

Series [4] relates to epidermoid carcinoma A-431. In words: MTT cell viability assay, A-431. The class given is cell-based. As to conditions: Homo sapiens, 72 h. The text has this: (§1) The following human cell lines were used in this study: (i) epidermoid carcinoma A-431 (ATCC® CRL-1555), (ii) colorectal carcinoma HCT116 (ATCC® CCL-247), (iii) colorectal carcinoma HCT116p53^−/−, and (iv) normal fibroblasts BJ (ATCC® CRL-2522). The HCT116p53^−/− cell line was a kind gift from professor Bert Vogelstein (John Hopkin’s University, Baltimore, MD, USA). The remaining cell lines were purchased from ATCC (Manassas, VA, USA) or Sigma Aldrich by Merck (Darmstadt, Germany).
(§2) Cells were cultured in Dulbecco’s modified Eagle’s or Roswell Park Memorial Institute (RPMI)-1640 medium supplemented with 10% or 15% fetal bovine serum (Gibco by Thermo Fisher Scientific, Waltham, MA, USA) under standard culture conditions (37 °C, 5% CO2) in a humidified incubator with atmospheric oxygen.
(§3) The viability of cells was assayed by measuring the conversion of MTT (3-(4,5-dimethylthiazol-2-yl)-2,5-diphenyltetrazolium bromide) to the formazan (the rate of this reaction is proportional to the number of surviving cells). Cells were seeded in a 96-well plate at a density of 1500–2500 cells per well, 24 h before treatment. Treatment with tested compounds and cisplatin (0.25–160 µM) was performed for 72 h. MTT stock solution (Sigma-Aldrich) was added at the final concentration 0.5 mg/mL. After 2 h of incubation at 37 °C, water-insoluble formazan was dissolved in a lysis buffer containing 20% SDS, 50% DMF, 2.5% hydrochloric acid, and 2.5% acetic acid. Optical densities were measured at 570 nm using a scanning multi-well spectrophotometer ([…] Detection Platform; Beckman Coulter, Brea, CA, USA).

In another series the test system is normal fibroblasts BJ. In words: MTT cell viability assay, BJ. It counts as cell-based, human. As to conditions: Homo sapiens, Fibroblast; MTT, 72 h.
Excerpt: as §1, §2, §3
Background: Formazan colour is commonly taken as a measure of viable cells.

In series [5] the test system is colorectal carcinoma HCT116. In words: MTT cell viability assay, HCT116. As to conditions: Homo sapiens, HCT-116, 72 h, read-out: IC50 HTC116. It counts as cell-based.
Excerpt: as §1, §2, §3

Series [6] deals with colorectal carcinoma HCT116p53−/−. In words: MTT cell viability assay, HCT116p53−/−. The class given is cell-based. As to conditions: Homo sapiens, 72 h.
Excerpt: as §1, §2, §3

Series [7] concerns phytohemagglutinin-stimulated normal human lymphocytes. Further details: method as in PMID 12660022. As to conditions: cited from earlier work.
For a further series, the system named is MCF-7 (breast carcinoma). Further details: method as in PMID 12660022. Conditions: cited from earlier work.
For series [8], the system named is PC-3 (prostate carcinoma). Further details: method as in PMID 12660022. Conditions: cited from earlier work.
The subject of series [9] is A-431, HCT116, HCT116p53−/−, BJ. In words: MTT cell viability, reference cell lines as a whole. The class given is cell-based. As to conditions: Homo sapiens; viability tests, cell line not specified.
Excerpt: as §1, §2
The viability of cells was assayed by measuring the conversion of MTT (3-(4,5-dimethylthiazol-2-yl)-2,5-diphenyltetrazolium bromide) to the formazan (the rate of this reaction is proportional to the number of surviving cells). Cells were seeded in a 96-well plate at a density of 1500–2500 cells per well, 24 h before treatment. Treatment with tested compounds and cisplatin (0.25–160 µM) was performed for 72 h. […] Optical densities were measured at 570 nm using a scanning multi-well spectrophotometer ([…] Detection Platform; Beckman Coulter, Brea, CA, USA).

The mark [10] stands for this setting: read-out: IC50 against CK2 / inhibitory activity.

T1 sequence (P68400 whole entry): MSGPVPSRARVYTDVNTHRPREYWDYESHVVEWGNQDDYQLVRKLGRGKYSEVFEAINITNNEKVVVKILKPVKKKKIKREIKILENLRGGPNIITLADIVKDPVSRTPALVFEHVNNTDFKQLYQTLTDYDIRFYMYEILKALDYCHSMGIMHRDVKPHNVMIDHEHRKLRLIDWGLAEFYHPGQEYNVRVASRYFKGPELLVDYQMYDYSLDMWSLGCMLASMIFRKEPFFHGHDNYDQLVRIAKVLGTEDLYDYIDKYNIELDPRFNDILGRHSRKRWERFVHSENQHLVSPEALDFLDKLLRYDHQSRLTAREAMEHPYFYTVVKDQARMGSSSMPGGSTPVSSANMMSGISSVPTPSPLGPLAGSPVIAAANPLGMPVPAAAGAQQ

With `O=c1[nH]c2c(Br)c(Br)c(Br)c(Br)c2[nH]1` [4,5,6,7-tetrabromo-1H-benzo[d]imidazol-2(3H)-one], on CK2, the inhibition constant (Ki) was 200 nM. In the series on CK2 (read-out: IC50 CK2), the IC50 is 390 nM.

On to `FC(F)(F)c1nc2c(Br)c(Br)c(Br)cc2[nH]1` [4,5,6-tribrominated], for which the IC50 in the series with CK2 (setting [10]) was 1200 nM.

`FC(F)(F)c1nc2cc(Br)c(Br)cc2[nH]1` [Compound 3d, 5,6-dibromo-2-trifluoromethylo-1H-benzimidazole]: the shift in melting temperature (ΔTm) at 25 µM at hCK2α [1] is 2.4 ± 0.1 °C. Further, the “log(τ) HPLC-derived hydrophobicity index” value in series [2] is reported as 0.310. Also, the IC50 is 15 ± 3 µM at hCK2α [3]; 13 ± 2 µM in series [4]; 55 ± 6 µM with normal fibroblasts BJ; 10 ± 2 µM in series [5]; 12 ± 2 µM in series [6]; 28000 nM in the series with CK2 (setting [10]). Also, the IC80 in series [7] is 8.7 µM; with MCF-7 (breast carcinoma), < 3000 nM; in series [8], < 3000 nM.

`Oc1nc2cc(Br)c(Br)cc2nc1O` [Compound 7d]: the ΔTm at 25 µM on hCK2α [1] was 2.7 ± 0.1 °C. Also, in [2], the “log(τ) HPLC-derived hydrophobicity index” value was −0.174. Besides, the IC50 is 13 ± 4 µM against hCK2α [3]; 385 ± 82 µM in series [4]; 16 ± 2 µM in the series with normal fibroblasts BJ; 195 ± 35 µM in series [5]; 850 ± 300 µM in series [6].

As to `Oc1nc2cc(I)c(I)cc2nc1O` [Compound 7e], on hCK2α [1], the ΔTm at 25 µM worked out at 4.1 ± 0.1 °C. In addition, in series [2], the “log(τ) HPLC-derived hydrophobicity index” value is −0.117. The IC50 against hCK2α [3] was 2 ± 1 µM; in series [4], 94 ± 14 µM; in the series on normal fibroblasts BJ, 128 ± 13 µM; in series [5] it was 41 ± 4 µM; in series [6], 70 ± 10 µM; in [9], ~100 µM.

For `FC(F)(F)c1nc2c(Br)c(Br)c(Br)c(Br)c2[nH]1` [tetrabrominated], in the series with CK2 (setting [10]), the IC50 is 600 nM.
